# What was measured:
# osteocalcin mRNA = assay: Northern blot for osteocalcin mRNA in M2 cells; assay type: cell-based, mouse
# Experimental: RNA isolation and Northern blot analysis—Following treatment of cells under appropriate experimental conditions, total RNA was isolated using the RNA isolation kit from Stratagene (La Jolla, Calif., U.S.A.). Total RNA ([…]) was run on a 1% agarose/formaldehyde gel and transferred to Duralon-UV membranes (Strategene, Calif., U.S.A.) and cross-linked with UV light. The membranes were hybridized overnight at 60 degree C. with ^32P-labeled mouse osteocalcin cDNA probe, mouse lipoprotein lipase (LPL), mouse adipocyte protein 2 (aP2) PCR-generated probes, human 28S or 18S rRNA probes obtained from Geneka Biotechnology (Montreal, Quebec, Canada) and Maxim Biotech (San Francisco, Calif., U.S.A.), respectively. […] Following hybridization, the blots were washed twice at room temperature with 2×SSC+0.1% SDS, and then twice at 60 degree C. with 0.5×SSC+0.1% SDS, and exposed to X-ray film. The extent of gene induction was determined by densitometry.
# After 4 and 8 days, total RNA from duplicate samples was isolated and analyzed for osteocalcin (Osc) and 28S rRNA expression by Northern blotting as described. FIG. 3E is a radiogram of Northern blotting for osteocalcin mRNA in M2 cells exposed to a control or combination of oxysterols for 4 or 8 days. FIG. 3F is a bar graph depicting the relative demsometric units of osteocalcin mRNA in M2 cells exposed to a control or combination of oxysterols for 4 or 8 days. Data from densitometric analysis of the Northern blot is shown in (F) as the average of duplicate samples, normalized to 28S rRNA.
# Next, a combination of 22R and 20S oxysterols (RS, 2.5 μM each) were added in the presence or absence of SC as indicated. After 3 days, ALP activity was measured as described earlier. […] (B) M2 cells were treated as described in (A) and after 10 days matrix mineralization in cultures was quantified by a ^45Ca incorporation assay as described earlier. Results from a representative of three experiments are shown, reported as the mean±SD of quadruplicate determinations, normalized to protein concentration. (C) M2 cells were pretreated with 20 μM SC for 4 hours, followed by the addition of RS in the presence or absence of SC as described above. After 8 days, total RNA was isolated and analyzed for osteocalcin (Osc) and 18S rRNA expression by Northern blotting as previously described. Data from densitometric analysis of the Northern blot is shown in (D) as the average of duplicate samples, normalized to 18S rRNA. (E) M2 cells at confluence were pretreated for 2 hours with control vehicle (C), or PLA2 inhibitors ACA (25 μM) and AACOCF3 (AAC, 20 μM), in osteogenic medium. […] After 3 days, ALP activity was measured as previously described. […]
# [1] = test system: M2-10B4 mouse marrow stromal cell line; assay: Alkaline phosphatase (ALP) activity assay in M2 cells; assay type: cell-based; details: for dose and time dependence of induction of alkaline phosphatase activity: concentrations between 0.5-10 μM; for alkaline phosphatase activity: ligands used at 10 μM, control C: 18±2, ±SD; for induction of alkaline phosphatase activity: osteogenic medium, 10 μM oxysterols, 3 days
# Experimental: Cells: M2-10B4 mouse marrow stromal cell line obtained from American Type Culture Collection (ATCC, Rockville, Md., U.S.A.) was derived from bone marrow stromal cells of a (C57BL/6J×C3H/HeJ) F1 mouse, and support human and murine myelopoiesis in long-term cultures (as per ATCC) and have the ability to differentiate into osteoblastic and adipocytic cells. Unless specified, these cells were cultured in RPMI 1640 containing 10% heat-inactivated FBS, and supplemented with 1 mM sodium pyruvate, 100 U/ml penicillin, and 100 […] (all from Irvine Scientific).
# Alkaline phosphatase activity assay: Colorimetric alkaline phosphatase (ALP) activity assay on whole cell extracts was performed as previously described.
# Test 1: M2 cells at confluence were treated with control vehicle (C), or 10 μM oxysterols, in an osteogenic medium consisting of RPMI 1640 to which 10% fetal bovine serum (FBS), 50 μg/ml ascorbate and 3 mM beta-glycerophosphate (βGP) were added. After 3 days of incubation, alkaline phosphatase (ALP) activity was determined in cell homogenates by a colorimetric assay. […] FIG. 3A is a bar graph depicting the effect of various oxysterols on alkaline phosphatase activity in M2 cells.
# M2 cells at confluence were treated in osteogenic medium with control vehicle (C) or a combination of 22R and 20S oxysterols, at the indicated concentrations. ALP activity was measured after 3 days as described above. […] FIG. 3B is a bar graph depicting the effect of a combination of oxysterols at various doses on alkaline phosphatase activity in M2 cells.
# Test 2: M2 cells were grown in RPMI medium containing 10% fetal bovine serum (FBS). At confluence, the cells were treated in RPMI containing 5% FBS plus ascorbate at 50 μg/ml and β-glycerophosphate at 3 mM to induce osteoblastic differentiation. Adipogenic differentiation was induced by treating the cells in growth medium plus 10 ˜M troglitazone. A vehicle (C) or oxysterol treatment was applied to cells in a variety of doses (in μM): 20S-Hydroxycholesterol, 25-Hydroxycholesterol, 22R-Hydroxycholesterol; 22S-Hydroxycholesterol; 7-ketocholesterol. Cells were always treated at 90% confluence. After 4 days, alkaline phosphatase activity was determined in whole cell lysates and normalized to protein. Alternatively, MSC cultures were prepared and treated with oxysterols as described above. Cells were treated at 90% confluence with the combination of 22R-Hydroxycholesterol and 20S-Hydroxycholesterol, each at 5 uM, for 4 to 96 hours. The oxysterols where removed and fresh media without oxysterols was added for a total duration of 96 hours. Alkaline phosphatase activity was measured in whole cell extracts and normalized to protein.
# M2 cells were treated at 90% confluence with vehicle (C), or oxysterols 20S-Hydroxycholesterol or 22S-Hydroxycholesterol at (0.5 μM) or (1 μM), in the absence or presence of cytochrome P450 inhibitor (SKF525A 10 μM (+)). MSC cultures were also treated at 90% confluence with vehicle (C), or 20S-Hydroxycholesterol (2 μM), in the absence or presence of cytochrome P450 […] (Benzylimidazole 50 μM) or SKF525A (10 μM). After 4 days, alkaline phosphatase activity was measured in whole cell extracts and normalized to protein.
# Next, a combination of 22R and 20S oxysterols (RS, 2.5 μM each) were added in the presence or absence of SC as indicated. After 3 days, ALP activity was measured as described earlier. […] (B) M2 cells were treated as described in (A) and after 10 days matrix mineralization in cultures was quantified by a ^45Ca incorporation assay as described earlier.
# [2] = individual oxysterols 0.5-10 μM up to 14 days, combinations 5 μM each, 4 and 8 days
Compound,induction of osteocalcin gene expression (osteocalcin mRNA; [2]),dose and time dependence of induction of alkaline phosphatase activity [1],alkaline phosphatase activity [1],induction of alkaline phosphatase activity [1],"induction of osteocalcin gene expression (osteocalcin mRNA; TO treatment, after 10 days)",effect on alkaline phosphatase activity ([1]; TO at 1-10 μM)
"CC(C)CCC[C@](C)(O)[C@H]1CC[C@H]2[C@@H]3CC=C4C[C@@H](O)CC[C@]4(C)[C@H]3CC[C@@]21C [20S, 20(S)-hydroxycholesterol]",unable to induce,dose- and time-dependent,140±12 activity units/mg protein,induced,,
"CC(C)CC[C@@H](O)[C@@H](C)[C@H]1CC[C@H]2[C@@H]3CC=C4C[C@@H](O)CC[C@]4(C)[C@H]3CC[C@]12C [22R, 22(R)-hydroxycholesterol]",unable to induce,dose- and time-dependent,45±5 activity units/mg protein,induced,,
"CC(C)CC[C@H](O)[C@@H](C)[C@H]1CC[C@H]2[C@@H]3CC=C4C[C@@H](O)CC[C@]4(C)[C@H]3CC[C@]12C [22S, 22(S)-hydroxycholesterol]",unable to induce,dose- and time-dependent,,induced,,
"O=S(=O)(c1ccccc1)N(CC(F)(F)F)c1ccc(C(O)(C(F)(F)F)C(F)(F)F)cc1 [TO, TO-901317]",,,3±0.5 activity units/mg protein,,did not induce,dose-dependent inhibition

# From US7897588B2, “Agents and methods for enhancing bone formation” (The Regents of the University of California, priority 2003, dated 2011)
